# Test results published in publication PMC10552749, “Anti-methicillin-resistant Staphylococcus aureus and antibiofilm activity of new peptides produced by a Brevibacillus strain” (PeerJ, 2023).
# Values joined by “and” are separate entries in the source; they are usually repeats but may differ in a detail not shown here. Identical values can stand only once. Where no end group is shown, it is not given here.
# How the values were obtained:
# human erythrocytes = assay type: cell-based
# Experimental: The Ethics Committee in Human Research at Walailak University has approved this study (WUEC-22-242-01; 15 August 2022). The written consent was obtained from a subject involved in the research. Whole blood (5 mL) was collected from a human volunteer and centrifuged at 700× g for 8 min. The pellets were washed 3 times with PBS before diluting to obtain 0.5% erythrocyte suspension. A total of 50 µL of erythrocytes was added to a 96-well plate, and the purified peptide in PBS (50 μL) was mixed to achieve the final peptide concentration of 1, 2, 4, 8, 16, 32, 64, 128, 256, and 512 µg/mL. The mixtures were then incubated at 37 °C for 1 h. They were further centrifuged at 1,000× g for 10 min, and the supernatant was loaded into a microplate before measuring the absorbance at 540 nm. The positive and negative controls were 1% Triton X-100 and untreated samples, respectively, while PBS was used as a blank control. This assay was carried out in three independent experiments. The percent hemolysis was calculated by the following equation:
# %Hemolysis=[Asam−Ablank]/[Apos−Ablank]×100 where Asam is the sample absorbance, Apos and Ablank are the absorbance of positive and blank controls, respectively ([Oddo & Hansen, 2017]).
# [1] = ref Baczek, Walijewski & Kaliszan, 2008, cited from earlier work
# MRSA isolate 1096 [2] = test: microbe, parasite or virus in culture; assay type: cell-based; conditions: Staphylococcus aureus, 24 h
# Experimental: (§1) The assay was conducted in accordance with the guideline of the Clinical and Laboratory Standard Institute (CLSI). […] The cell suspension was prepared in a 20-fold dilution using Cation-Adjusted Mueller-Hinton broth (CAHMB) as a diluent. A total of 10 µL of the diluted bacterial preparation and 100 µL of pure substances (0.25–64 µg/mL) were loaded into the 96-well plates. The plates were incubated at 37 °C for 24 h. Control wells were performed for broth (CAMHB) and inoculum. Vancomycin was tested as a control drug. The experiment was performed in triplicate for each tested strain.
# MRSA isolate 142 [3] = test: microbe, parasite or virus in culture; assay type: cell-based; conditions: Staphylococcus aureus, 24 h
# Experimental: as §1
# MRSA isolate 2468 [4] = test: microbe, parasite or virus in culture; assay type: cell-based; conditions: Staphylococcus aureus, 24 h
# Experimental: as §1
# S. aureus TISTR 517 [5] = test: microbe, parasite or virus in culture; assay type: cell-based; conditions: Staphylococcus aureus, TISTR517, 24 h
# Experimental: as §1
# MRSA isolate 1096 [6] = test: microbe, parasite or virus in culture; assay type: cell-based, Staphylococcus aureus
# Experimental: (§2) Wells of 9 mm were punched on the solid media surface by a sterile tip, and 100 µL of purified substance was loaded before incubating the plates at 37 °C for 24 h. […] The result was collected from three independent experiments in which the diameter of the zone of inhibition was measured by a vernier caliper and reported as mean ± SD ([Lei et al., 2020]). The significant difference was determined by Student’s t-test at a p-value of less than 0.05.
# MRSA isolate 142 [7] = test: microbe, parasite or virus in culture; assay type: cell-based, Staphylococcus aureus
# Experimental: as §2
# MRSA isolate 2468 [8] = test: microbe, parasite or virus in culture; assay type: cell-based, Staphylococcus aureus
# Experimental: as §2
# S. aureus TISTR 517 [9] = test: microbe, parasite or virus in culture; assay type: cell-based, Staphylococcus aureus
# Experimental: as §2
# S. aureus TISTR 517 [10] = test: Inhibition of biofilm formation (crystal violet); assay type: cell-based; conditions: Staphylococcus aureus, TISTR517, 48 h, read-out: IC50 of biofilm formation
# Experimental: (§3) The cells were standardized using the same medium to achieve 1 × 10^8 CFU/mL. The cell suspension was mixed with peptide at various concentrations (0.5–256 µg/mL) in a 96-well plate. The plates were then incubated at 37 °C for 48 h. Then, the planktonic bacteria cells were removed from the plates by washing them with PBS. Thereafter, 100 µL of methanol was added to the plate to fix the biofilm-associated cells. The plates were dried and stained with 0.1% crystal violet for 15 min before rinsing twice with PBS. A total of 100 μL of […] was finally added to resolubilize the stained crystal violet. The plates were incubated at 37 °C for 30 min, and the supernatants were transferred to a new 96-well plate. The absorbance at 570 nm was measured by a microplate reader (Thermo Fisher Scientific Inc., Waltham, MA, USA) to determine the biofilm formation. […] One-way ANOVA was used to analyze the significant differences among treated samples compared to the untreated controls at various p-values.
# MRSA isolate 2468 [11] = test: Inhibition of biofilm formation (crystal violet); assay type: cell-based, Staphylococcus aureus
# Experimental: as §3
# MRSA isolate 2468 [12] = test: Biofilm eradication assay; assay type: cell-based, Staphylococcus aureus; conditions: vs untreated, p-value < 0.05
# Experimental: (§4) The bacteria were standardized to achieve 1 × 10^8 CFU/mL, and 100 µL of cell suspension was transferred to a 96-well microplate. The plates were incubated at 37 °C for 48 h for biofilm formation. The free bacteria cells were removed from the plates by washing them with PBS. Peptide solutions at the concentrations (0.5–256 µg/mL) were added to the microplate and incubated at 37 °C for 24 h. Subsequently, PBS was used to rewash the plate, and 100 µL of PBS was loaded into each well. The plate was sonicated for 30 min at room temperature, and the samples were taken and made a ten-fold serial dilution. A total of 10 µL of the diluted samples was plated on MH agar for colony count. Vancomycin and untreated samples were used as the positive and negative controls. Only SCD media without bacteria was used as the blank ([Yuan et al., 2019]). The significant difference was evaluated by one-way ANOVA (p-value < 0.05) compared to untreated controls.
# [13] = system: S. aureus TISTR 517 and MRSA isolate 142, 1096, and 2468; test: microbe, parasite or virus in culture; assay type: cell-based, Staphylococcus aureus
# Experimental: as §1
# [14] = system: S. aureus TISTR 517 and MRSA isolate 2468; test: Biofilm eradication assay, statements for both tested bacteria; assay type: cell-based, Staphylococcus aureus
# Experimental: as §4
# [15] = system: S. aureus and MRSA biofilms; conditions: statically grown biofilms of S. aureus and MRSA; ref Zapotoczna et al., 2017; cited from earlier work
# Description: Biofilm is an important virulence mechanism in many bacterial pathogens. The cells irreversibly adhere to the biotic and abiotic surfaces and are surrounded by an extracellular matrix in response to stress conditions ([Flemming & Wuertz, 2019]). […] S. aureus and MRSA develop a biofilm to decrease or prevent the diffusion of antimicrobial drugs into the cells, resulting in more drug r ...
# [16] = Staphylococcus aureus, read-out: Inhibition zone
# [17] = Vancomycin (30 μg), mean ± SD, n = 3
compound,measurement,setting,value
MFLVVKVLKYVV [BrSPR19-P2],Therapeutic index (TI) of hemolysis / hemolysis index threshold,human erythrocytes,32
DAEFGHDSG-NH2 [literature model peptide for RPC retention],RPC retention time,[1]; isocratic elution by 0.1% TFA and ACN,3.75 min
same,pI,[1],4.02
CN[C@H](CC(C)C)C(=O)N[C@H]1C(=O)N[C@@H](CC(N)=O)C(=O)N[C@H]2C(=O)N[C@H]3C(=O)N[C@H](C(=O)N[C@H](C(=O)O)c4cc(O)cc(O)c4-c4cc3ccc4O)[C@H](O)c3ccc(c(Cl)c3)Oc3cc2cc(c3O[C@@H]2O[C@H](CO)[C@@H](O)[C@H](O)[C@H]2O[C@H]2C[C@](C)(N)[C@H](O)[C@H](C)O2)Oc2ccc(cc2Cl)[C@H]1O [Vancomycin],MBC,MRSA isolate 1096 [2],2 µg/mL
same,MIC,MRSA isolate 1096 [2],2 µg/mL
same,MBC,MRSA isolate 142 [3],2 µg/mL
same,MIC,MRSA isolate 142 [3],2 µg/mL
same,MBC,MRSA isolate 2468 [4],2 µg/mL
same,MIC,MRSA isolate 2468 [4],2 µg/mL
same,MBC,S. aureus TISTR 517 [5],2 µg/mL
same,MIC,S. aureus TISTR 517 [5],2 µg/mL
same,zone of inhibition at 30 µg/disc,MRSA isolate 1096 [6]; [16],23.1 ± 0.36 mm
same,Inhibition zone,MRSA isolate 1096 [6]; [17],23.10 mm
same,zone of inhibition at 30 µg/disc,MRSA isolate 142 [7]; [16],23.5 ± 0.59 mm
same,Inhibition zone,MRSA isolate 142 [7]; [17],23.47 mm
same,zone of inhibition at 30 µg/disc,MRSA isolate 2468 [8]; [16],23.9 ± 0.1 mm
same,Inhibition zone,MRSA isolate 2468 [8]; [17],23.90 mm
same,zone of inhibition at 30 µg/disc,"S. aureus TISTR 517 [9]; Staphylococcus aureus, TISTR517, read-out: Inhibition zone",20.7 ± 0.23 mm
same,Inhibition zone,S. aureus TISTR 517 [9]; [17],20.73 mm
same,IC50,S. aureus TISTR 517 [10],4.84 µg/mL
same,Biofilm formation (% of untreated) after treatment,"MRSA isolate 2468 [11]; 4 μg/mL or 2× MIC, 37 °C 48 h, crystal violet, A570, mean ± SD of three experiments",68.25 ± 4.21%
same,IC50,"MRSA isolate 2468 [11]; Staphylococcus aureus, 48 h, read-out: IC50 of biofilm formation",5.91 µg/mL
same,Concentration that significantly reduced persistent cells in biofilm,MRSA isolate 2468 [12],64 µg/mL
same,MBC,[13]; Staphylococcus aureus,2 µg/mL
same,MIC,[13]; Staphylococcus aureus,2 µg/mL and 1.38 µM
same,MBC,[13]; against all tested bacteria,2 µg/mL
same,MIC,[13]; against all tested bacteria,2 µg/mL
same,Concentration to destroy mature biofilms as multiple of MIC,[14]; 128 μg/mL relative to MIC,64 × MIC
same,Concentration that completely eradicated biofilm (killed persistent cells),"[14]; 48 h preformed biofilms, 24 h treatment, both bacteria",128 µg/mL
same,Concentration for half-maximal inhibition of biofilms,[15],16.0 to 68.2 µg/mL
